Patent publication US20240360091A1, “GLUN2B-SUBUNIT SELECTIVE ANTAGONISTS OF THE N-METHYL-D-ASPARTATE RECEPTORS WITH ENHANCED POTENCY AT ACIDIC PH” (Emory University, priority 2021, published 2024)
Read-outs that look alike come from different tables or passages of the source.

Tests used:
[1] = Plasma protein binding, rapid equilibrium dialysis, mouse; type: in vitro ADME; settings: n=2
Protocol: Plasma protein binding was performed with a rapid equilibrium dialysis (RED) device containing dialysis membrane with a molecular weight cut-off of 8,000 Daltons according to the manufacturer's instructions (ThermoFisher, USA). The plasma samples (pH 7.4) and the test compound solution (1 or 5 μM) or reference standards (Warfarin and Propranolol, 10 μM) were combined (DMSO final conc 0.1%). 300 μL of this spiked plasma sample was added to the sample chamber, and 500 μL of blank PBS buffer (pH 7.4) was added into the buffer chamber. The RED device was sealed with adhesive film and then incubated at 37° C. with shaking at 300 rpm for 4 h. Following incubation, an aliquot (50 μL) was removed from each well (spiked plasma and buffer side) and diluted with equal volume of the corresponding opposite matrix (blank buffer or blank plasma) to nullify the matrix effect, and then extracted for analysis by LC-MS/MS. The amount of free material was determined by:
% Free=(LC-MS/MS peak area of test compound in buffer side/LC-MS/MS peak area of test compound in plasma side)×100%

[2] = Liver microsome stability, human; type: in vitro ADME; settings: 1 μM, with cofactors, one-hour incubation at 37° C.
Protocol: (§1) Metabolic stability was assessed using human and mouse liver microsomes (Xenotech, USA). The final composition of the assay included 1 μM of the test compound or reference standards (imipramine and diclofenac sodium) prepared from DMSO or acetonitrile stock, so that the final concentration of DMSO and acetonitrile was 0.2% and 0.8%, respectively. The test compound was incubated with 0.5 mg/mL microsomal protein without (100 mM potassium phosphate buffer alone, pH 7.4) or with cofactors (5.0 mM glucose-6-phosphate, 0.06 U glucose-6-phosphate dehydrogenase, 2.0 mM MgCl2, 1.0 mM NADP^+/NADPH). The test compound and standards were incubated at 37° C. with human and mouse liver microsomes; aliquots of the reaction mixture (100 μL) were removed at 0, 5, 15, 30, 60 and 120 min. The reaction in the aliquots was stopped by the addition of 2.5 mL tert-butyl methyl ether and the samples were subjected to shaking for 15 min. […] The percent of the test compound remaining after the specified incubation period was calculated with respect to the peak areas of the test compound at time 0 min.
(§2) The compound and standards were incubated with human and mouse liver microsomes with or without cofactors, and the samples were extracted and analyzed using LC-MS/MS, as described above.

[3] = Liver microsome stability, mouse; type: in vitro ADME; settings: 1 μM, with cofactors, one-hour incubation at 37° C.
Protocol: as §1, §2

[4] = system: motor coordination of mice on rotarod; experiment: Rotarod performance; type: in vivo, mouse; settings: for rotarod impairment: all four trials
Protocol: The locomotor and rotarod studies were approved by the Georgia State University IACUC, an AAALAC accredited institution under the supervision of licensed veterinarians. Mice were group housed, provided nestlets and shelters with access to food pellets and water ad libitum under a 12-hour light/dark cycle.
For rotarod experiments, male C57BL/6 mice (>90 days old) were tested using a Rotamax 4/8 rotarod (Columbus Instruments, Columbus, Ohio). Prior to training and testing, the mice were brought to the testing room and allowed to acclimate for two hours prior to any further handling. Mice were placed on a rotating rod (5 rpm), 3.8 cm in diameter and 8 cm wide, elevated 30 cm from the floor of a chamber. After 10 sec of rotation at a fixed velocity, the rotation was slowly accelerated from 5 to 35 rpm over a 5 min period. The duration of time that the mouse could stay on the rotarod, without hanging on for a full rotation or without falling, was recorded. Mice were trained 4 times at 25 min inter-trial intervals on each day for two days. On day three, mice were randomly assigned to treatment groups and administered test drug or vehicle (via IP administration) 25 min prior to testing (4 trials with inter-trial interval of 25 min). Individuals performing the experiment were blinded to the identity of each treatment group. Results were analyzed by ANOVA and Dunnett's post hoc test to compare duration of time on the rotating rod of drug-treated groups to the vehicle controls.

human GluN1/GluN2B = human GluN1/GluN2B (Homo sapiens (Human), UniProt Q05586+Q13224); experiment: Two electrode voltage-clamp recordings from Xenopus laevis oocytes, GluN2B potency and pH dependence; type: cell-based
human GluN1/GluN2B, sequence (Q13224 27-1484, other chains not shown): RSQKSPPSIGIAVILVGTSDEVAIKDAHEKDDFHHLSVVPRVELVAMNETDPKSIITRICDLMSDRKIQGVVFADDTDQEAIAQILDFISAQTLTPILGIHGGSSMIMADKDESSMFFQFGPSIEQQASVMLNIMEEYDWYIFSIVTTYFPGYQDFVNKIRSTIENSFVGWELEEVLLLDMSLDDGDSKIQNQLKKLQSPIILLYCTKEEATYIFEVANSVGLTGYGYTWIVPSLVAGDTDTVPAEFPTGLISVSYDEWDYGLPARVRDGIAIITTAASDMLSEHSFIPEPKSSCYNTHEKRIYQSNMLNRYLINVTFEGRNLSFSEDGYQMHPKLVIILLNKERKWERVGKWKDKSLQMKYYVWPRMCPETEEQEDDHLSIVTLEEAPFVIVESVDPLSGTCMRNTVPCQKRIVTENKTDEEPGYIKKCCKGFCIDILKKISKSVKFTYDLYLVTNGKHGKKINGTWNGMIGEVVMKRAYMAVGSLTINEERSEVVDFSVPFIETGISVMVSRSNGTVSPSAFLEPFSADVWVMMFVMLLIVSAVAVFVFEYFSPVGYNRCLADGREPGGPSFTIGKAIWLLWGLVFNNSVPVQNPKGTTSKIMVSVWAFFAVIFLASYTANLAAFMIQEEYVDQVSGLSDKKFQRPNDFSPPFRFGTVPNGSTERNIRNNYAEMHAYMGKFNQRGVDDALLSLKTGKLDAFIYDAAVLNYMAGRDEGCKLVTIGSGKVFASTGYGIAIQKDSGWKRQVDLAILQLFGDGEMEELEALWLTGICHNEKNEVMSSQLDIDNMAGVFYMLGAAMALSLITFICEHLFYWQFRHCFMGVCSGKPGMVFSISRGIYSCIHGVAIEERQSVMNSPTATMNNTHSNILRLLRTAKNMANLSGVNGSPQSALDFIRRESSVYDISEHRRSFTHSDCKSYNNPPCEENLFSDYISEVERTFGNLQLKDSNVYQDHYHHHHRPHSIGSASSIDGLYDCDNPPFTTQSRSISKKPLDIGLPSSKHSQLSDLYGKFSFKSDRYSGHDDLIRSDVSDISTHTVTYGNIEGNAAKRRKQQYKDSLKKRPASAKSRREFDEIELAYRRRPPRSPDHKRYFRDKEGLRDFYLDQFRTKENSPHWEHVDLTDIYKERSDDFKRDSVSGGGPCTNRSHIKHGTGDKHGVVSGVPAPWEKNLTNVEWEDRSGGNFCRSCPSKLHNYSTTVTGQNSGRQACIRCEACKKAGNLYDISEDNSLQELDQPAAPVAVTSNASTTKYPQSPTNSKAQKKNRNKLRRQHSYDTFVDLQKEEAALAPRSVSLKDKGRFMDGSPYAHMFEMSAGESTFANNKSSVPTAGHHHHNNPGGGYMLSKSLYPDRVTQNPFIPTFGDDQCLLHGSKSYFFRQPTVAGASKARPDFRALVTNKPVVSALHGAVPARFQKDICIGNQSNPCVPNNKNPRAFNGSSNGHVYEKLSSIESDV
Protocol: Two Electrode Voltage-Clamp Recordings from Xenopus laevis Oocytes
Stage V-VI Xenopus laevis unfertilized oocytes were purchased from Ecocyte (Austin, Texas) and injected with 5 ng of GluN1 and 10 ng of GluN2B cRNAs. The cDNAs for human GluN1 and GluN2B, encoding NCBI reference sequences NM_007327.3 and NM_000834.3, respectively, were linearized and cRNAs made as previously described (Traynelis et al., J Neurosci, 1998, 18(16):6163-75). After injection, the oocytes were incubated in Barth's culture solution (88 mM NaCl, 1 mM KCl, 2.4 mM NaHCO3, 10 mM HEPES, 0.82 mM MgSO4, 0.33 mM Ca(NO3)2, 0.41 mM CaCl2), 10 U/mL PenStrep, and 0.1 mg/mL gentamycin, pH 7.4) at 18° C. Two electrode voltage-clamp (TEVC) recordings were made at 22-23° C., 2-7 days after the injection, using Warner OC725C amplifiers (VHOLD=−40 mV). Briefly, the oocytes were perfused in a recording solution (90 mM NaCl, 1 mM KCl, 10 mM HEPES, 0.01 mM EDTA, and 0.5 mM BaCl2) adjusted to either pH 7.6 or 6.9 by addition of NaOH or HCl, respectively (pH 6.9 solutions were prepared by addition of HCl to pH 7.6 solutions to maintain an equal concentration of Na^+ ions in both solutions). Concentration-response curves of the compounds were obtained by application of increasing concentrations of each individual compound until steady state conditions were obtained, in the presence of saturating agonist concentrations (i.e., 100 μM glutamate and 30 μM glycine). In general, oocyte recordings were made from 4-10 oocytes per experiment (i.e., oocyte injection cycle) from ≥two experiments. The concentration-response relationship for each oocyte was fit by equation (1),
Percent Response=(100−minimum)/(1+([concentration]/IC50)^nH)+minimum (1)
where minimum is the residual response in saturating concentration of each individual compound (constrained to be ≥0), and IC50 is the concentration of compound that causes half-maximal inhibition, and nH is the Hill slope.

GluN2A = GluN2A (Homo sapiens (Human), UniProt Q12879); experiment: Two electrode voltage-clamp recordings, single concentration, GluN2A; type: cell-based; settings: pH 6.9
GluN2A, sequence (Q12879 23-1464, other chains not shown): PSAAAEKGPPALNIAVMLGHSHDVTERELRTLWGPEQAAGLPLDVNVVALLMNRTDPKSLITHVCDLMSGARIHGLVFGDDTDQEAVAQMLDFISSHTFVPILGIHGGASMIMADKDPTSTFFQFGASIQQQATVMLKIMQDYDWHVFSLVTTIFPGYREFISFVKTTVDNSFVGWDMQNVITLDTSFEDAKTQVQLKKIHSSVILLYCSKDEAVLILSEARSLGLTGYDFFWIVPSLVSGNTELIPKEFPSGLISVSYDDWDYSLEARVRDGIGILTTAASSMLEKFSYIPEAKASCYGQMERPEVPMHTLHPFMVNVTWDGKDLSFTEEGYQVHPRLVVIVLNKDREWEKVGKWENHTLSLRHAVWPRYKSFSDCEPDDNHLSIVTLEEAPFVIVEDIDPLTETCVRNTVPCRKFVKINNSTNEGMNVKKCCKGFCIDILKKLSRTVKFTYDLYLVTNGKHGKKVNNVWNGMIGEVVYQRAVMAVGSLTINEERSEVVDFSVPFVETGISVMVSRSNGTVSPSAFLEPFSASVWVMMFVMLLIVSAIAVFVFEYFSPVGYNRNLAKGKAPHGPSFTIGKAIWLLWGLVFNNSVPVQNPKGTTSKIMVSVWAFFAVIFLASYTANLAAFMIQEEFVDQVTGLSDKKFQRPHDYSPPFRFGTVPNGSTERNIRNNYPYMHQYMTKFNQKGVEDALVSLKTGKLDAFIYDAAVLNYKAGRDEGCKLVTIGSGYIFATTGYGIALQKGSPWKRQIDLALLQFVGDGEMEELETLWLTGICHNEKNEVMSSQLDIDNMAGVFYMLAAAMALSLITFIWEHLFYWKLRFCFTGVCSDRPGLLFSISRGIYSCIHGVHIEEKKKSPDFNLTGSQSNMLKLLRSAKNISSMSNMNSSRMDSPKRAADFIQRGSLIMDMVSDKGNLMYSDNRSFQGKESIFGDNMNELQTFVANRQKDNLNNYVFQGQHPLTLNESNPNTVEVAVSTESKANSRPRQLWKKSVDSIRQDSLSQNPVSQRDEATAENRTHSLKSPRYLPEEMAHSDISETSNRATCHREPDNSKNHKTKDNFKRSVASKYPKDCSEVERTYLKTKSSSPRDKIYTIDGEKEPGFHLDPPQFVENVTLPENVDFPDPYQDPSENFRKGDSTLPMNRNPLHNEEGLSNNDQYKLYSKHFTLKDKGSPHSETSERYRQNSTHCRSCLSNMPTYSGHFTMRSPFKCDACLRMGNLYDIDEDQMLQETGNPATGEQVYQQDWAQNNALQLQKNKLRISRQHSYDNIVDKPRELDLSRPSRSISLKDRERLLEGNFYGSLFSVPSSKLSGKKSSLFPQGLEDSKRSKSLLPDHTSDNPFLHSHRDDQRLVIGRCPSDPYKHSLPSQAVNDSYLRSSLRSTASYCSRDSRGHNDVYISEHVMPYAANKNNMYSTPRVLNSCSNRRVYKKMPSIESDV

bound to mouse plasma proteins [1]: 98.2%
percent remaining in human liver microsomes [2]: 72%
percent remaining in mouse liver microsomes [3]: 54%
IC50 (human GluN1/GluN2B; pH 6.9, read-out: IC50 (μM) pH 6.9): 0.023 µM
IC50 (human GluN1/GluN2B; pH 6.9, read-out: IC50 value at pH 6.9): 0.023 µM
IC50 (human GluN1/GluN2B; pH 7.6, read-out: IC50 (μM) pH 7.6): 0.142 µM
IC50 (human GluN1/GluN2B; pH 7.6, read-out: IC50 value at pH 7.6): 0.142 µM
pH Boost (human GluN1/GluN2B; ratio of IC50 at pH 7.6 to IC50 at pH 6.9): 6.2
off-target inhibition against GluN2A (GluN2A; 3 μM): no noticeable off-target inhibition
GluN2A % residual (GluN2A; % current remaining after 3 μM compound): 99.0 (pH 6.9) %
SMILES: O=C1CCc2cc(OC[C@H](O)CN3CCN(c4ccc(C(F)(F)F)cc4)CC3)ccc2N1 [NP10679]
rotarod impairment ([4]; 2 mg/kg IP): no significant impairment
rotarod impairment ([4]; 5 mg/kg IP): no significant impairment
latency to fall ([4]; 10 mg/kg IP, fourth trial): 87 ± 13 s
latency to fall, change from the vehicle control ([4]; 10 mg/kg IP, trials 1, 2, or 3): no statistically significant change
